According to paper PMC6597265 (ACS chemical neuroscience, 2019):
Where two headings read alike, the source gives them in different places.

Legend:
[1] = molecular target: human EAAT1 (Homo sapiens, UniProt P43003); experiment: [3H]-D-Asp uptake assay, EAAT1 stably expressed in HEK293 cells; format: cell-based
[2] = molecular target: human EAAT2 (Homo sapiens, UniProt P43004); experiment: [3H]-D-Asp uptake assay, EAAT2 stably expressed in HEK293 cells; format: cell-based
[3] = molecular target: recombinant rat homomeric GluK3 (Rattus norvegicus, UniProt P42264); experiment: Binding affinity at cloned homomeric GluK3 expressed in sf9 cells, [3H]-KA; conditions: for GluK1/K3 (GluK1/GluK3 Ki selectivity ratio): ratio of Ki values at cloned homomeric receptors
[4] = molecular target: T1, human EAAT3 (Homo sapiens, UniProt P43005); experiment: [3H]-D-Asp uptake assay, EAAT3 stably expressed in HEK293 cells; format: cell-based
T1 sequence (P43005 1-524): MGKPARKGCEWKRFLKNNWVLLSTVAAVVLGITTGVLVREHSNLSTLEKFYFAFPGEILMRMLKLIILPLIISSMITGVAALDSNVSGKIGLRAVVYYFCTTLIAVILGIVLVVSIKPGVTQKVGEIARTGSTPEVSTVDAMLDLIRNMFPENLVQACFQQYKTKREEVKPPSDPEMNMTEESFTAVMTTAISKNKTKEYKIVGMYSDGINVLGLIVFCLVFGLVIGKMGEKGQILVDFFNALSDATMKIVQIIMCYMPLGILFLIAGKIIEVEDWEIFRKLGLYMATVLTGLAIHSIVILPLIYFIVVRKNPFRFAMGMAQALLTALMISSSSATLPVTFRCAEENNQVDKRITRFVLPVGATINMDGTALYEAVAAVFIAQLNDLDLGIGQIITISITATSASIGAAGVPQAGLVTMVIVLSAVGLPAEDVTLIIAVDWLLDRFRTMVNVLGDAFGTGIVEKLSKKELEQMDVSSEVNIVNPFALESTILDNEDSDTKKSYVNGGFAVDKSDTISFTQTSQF

[5] = molecular target: native AMPA receptors; conditions: read-out: IC50 AMPA; native receptors; ref [67]; cited from earlier work
[6] = molecular target: native KA receptors; conditions: native receptors; ref [67]; cited from earlier work
[7] = molecular target: native NMDA receptors; conditions: read-out: Ki NMDA; native receptors; ref [67]; cited from earlier work
[8] = molecular target: GluN1/GluN2B (Rattus norvegicus, UniProt P35439+Q00960); format: cell-based
[9] = molecular target: GluN1/GluN2D (Rattus norvegicus, UniProt P35439+Q62645); format: cell-based
[10] = molecular target: GluN1/GluN2A (Rattus norvegicus, UniProt P35439+Q00959); format: cell-based
[11] = molecular target: GluN1/GluN2A (Rattus norvegicus, UniProt Q00959); format: cell-based; conditions: from Ki values
[12] = molecular target: GluN1/GluN2C (Rattus norvegicus, UniProt P35439+Q00961); format: cell-based
[13] = molecular target: native NMDA receptors; format: binding; conditions: native iGluRs, rat synaptosomes
[14] = molecular target: recombinant rat homomeric GluK2 (Rattus norvegicus, UniProt P42260); experiment: Binding affinity at cloned homomeric GluK2 expressed in sf9 cells, [3H]-KA
[15] = molecular target: native AMPA receptors; experiment: Binding affinity at native AMPA receptors, [3H]-AMPA, rat cortical synaptosomes; conditions: native iGluRs
[16] = molecular target: recombinant rat homomeric GluK1 (Rattus norvegicus, UniProt P22756); experiment: Binding affinity at cloned homomeric GluK1 expressed in sf9 cells, [3H]-NF608
[17] = molecular target: native KA receptors; experiment: Binding affinity at native KA receptors, [3H]-KA, rat cortical synaptosomes; conditions: native iGluRs, mean of at least three experiments

Chain of recombinant rat homomeric GluK3 (P42264 32-919): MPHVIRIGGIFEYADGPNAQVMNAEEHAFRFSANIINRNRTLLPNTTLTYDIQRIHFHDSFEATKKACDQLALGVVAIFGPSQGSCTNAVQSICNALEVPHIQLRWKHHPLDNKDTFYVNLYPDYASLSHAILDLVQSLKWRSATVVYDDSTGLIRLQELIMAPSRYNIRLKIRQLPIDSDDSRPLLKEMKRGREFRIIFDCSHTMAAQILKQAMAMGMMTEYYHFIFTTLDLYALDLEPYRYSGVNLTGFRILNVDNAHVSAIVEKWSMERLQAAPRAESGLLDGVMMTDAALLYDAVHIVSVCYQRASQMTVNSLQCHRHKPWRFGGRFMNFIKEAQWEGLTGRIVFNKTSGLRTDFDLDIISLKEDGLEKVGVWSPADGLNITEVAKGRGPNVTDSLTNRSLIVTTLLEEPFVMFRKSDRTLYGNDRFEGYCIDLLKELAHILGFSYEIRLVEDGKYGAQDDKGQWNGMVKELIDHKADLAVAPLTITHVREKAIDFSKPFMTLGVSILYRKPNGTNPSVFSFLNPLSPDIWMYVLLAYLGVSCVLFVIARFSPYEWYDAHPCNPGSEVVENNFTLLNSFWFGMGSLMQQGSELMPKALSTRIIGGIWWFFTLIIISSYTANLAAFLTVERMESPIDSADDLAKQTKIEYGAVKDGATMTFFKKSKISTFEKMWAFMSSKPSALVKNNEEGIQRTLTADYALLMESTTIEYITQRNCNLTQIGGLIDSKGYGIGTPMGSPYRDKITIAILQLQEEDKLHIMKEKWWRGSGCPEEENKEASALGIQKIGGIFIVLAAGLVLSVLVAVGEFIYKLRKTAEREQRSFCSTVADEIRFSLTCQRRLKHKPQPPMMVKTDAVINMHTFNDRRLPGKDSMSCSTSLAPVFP
Chain of human EAAT1 (P43003 whole entry): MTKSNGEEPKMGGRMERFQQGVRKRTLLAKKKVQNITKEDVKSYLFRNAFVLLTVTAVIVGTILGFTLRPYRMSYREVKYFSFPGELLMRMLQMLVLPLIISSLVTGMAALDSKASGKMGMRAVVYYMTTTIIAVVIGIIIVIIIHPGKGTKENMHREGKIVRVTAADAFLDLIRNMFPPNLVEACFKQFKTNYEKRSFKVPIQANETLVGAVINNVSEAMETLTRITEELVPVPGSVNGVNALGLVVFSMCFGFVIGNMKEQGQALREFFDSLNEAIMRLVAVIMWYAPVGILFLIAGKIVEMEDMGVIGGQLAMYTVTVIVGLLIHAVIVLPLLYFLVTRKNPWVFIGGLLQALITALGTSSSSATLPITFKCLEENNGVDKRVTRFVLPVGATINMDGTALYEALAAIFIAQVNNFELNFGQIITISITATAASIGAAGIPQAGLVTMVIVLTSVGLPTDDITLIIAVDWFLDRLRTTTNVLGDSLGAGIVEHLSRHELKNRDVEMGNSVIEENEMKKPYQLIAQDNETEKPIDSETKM
Chain of human EAAT2 (P43004 whole entry): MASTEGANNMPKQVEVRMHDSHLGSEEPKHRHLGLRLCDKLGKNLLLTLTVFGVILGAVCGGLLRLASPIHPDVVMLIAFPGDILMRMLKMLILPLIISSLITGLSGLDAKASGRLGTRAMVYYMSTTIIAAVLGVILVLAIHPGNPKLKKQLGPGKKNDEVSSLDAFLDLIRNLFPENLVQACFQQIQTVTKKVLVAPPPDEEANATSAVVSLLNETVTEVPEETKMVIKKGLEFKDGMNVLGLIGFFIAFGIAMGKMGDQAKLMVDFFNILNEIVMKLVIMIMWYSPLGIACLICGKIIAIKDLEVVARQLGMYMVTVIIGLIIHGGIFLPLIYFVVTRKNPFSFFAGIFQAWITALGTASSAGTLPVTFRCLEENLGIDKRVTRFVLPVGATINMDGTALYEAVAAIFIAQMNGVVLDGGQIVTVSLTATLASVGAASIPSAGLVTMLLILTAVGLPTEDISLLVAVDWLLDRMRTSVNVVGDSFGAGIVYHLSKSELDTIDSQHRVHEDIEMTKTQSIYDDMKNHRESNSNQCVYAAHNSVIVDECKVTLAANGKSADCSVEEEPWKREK
Chain of recombinant rat homomeric GluK2 (P42260 32-908): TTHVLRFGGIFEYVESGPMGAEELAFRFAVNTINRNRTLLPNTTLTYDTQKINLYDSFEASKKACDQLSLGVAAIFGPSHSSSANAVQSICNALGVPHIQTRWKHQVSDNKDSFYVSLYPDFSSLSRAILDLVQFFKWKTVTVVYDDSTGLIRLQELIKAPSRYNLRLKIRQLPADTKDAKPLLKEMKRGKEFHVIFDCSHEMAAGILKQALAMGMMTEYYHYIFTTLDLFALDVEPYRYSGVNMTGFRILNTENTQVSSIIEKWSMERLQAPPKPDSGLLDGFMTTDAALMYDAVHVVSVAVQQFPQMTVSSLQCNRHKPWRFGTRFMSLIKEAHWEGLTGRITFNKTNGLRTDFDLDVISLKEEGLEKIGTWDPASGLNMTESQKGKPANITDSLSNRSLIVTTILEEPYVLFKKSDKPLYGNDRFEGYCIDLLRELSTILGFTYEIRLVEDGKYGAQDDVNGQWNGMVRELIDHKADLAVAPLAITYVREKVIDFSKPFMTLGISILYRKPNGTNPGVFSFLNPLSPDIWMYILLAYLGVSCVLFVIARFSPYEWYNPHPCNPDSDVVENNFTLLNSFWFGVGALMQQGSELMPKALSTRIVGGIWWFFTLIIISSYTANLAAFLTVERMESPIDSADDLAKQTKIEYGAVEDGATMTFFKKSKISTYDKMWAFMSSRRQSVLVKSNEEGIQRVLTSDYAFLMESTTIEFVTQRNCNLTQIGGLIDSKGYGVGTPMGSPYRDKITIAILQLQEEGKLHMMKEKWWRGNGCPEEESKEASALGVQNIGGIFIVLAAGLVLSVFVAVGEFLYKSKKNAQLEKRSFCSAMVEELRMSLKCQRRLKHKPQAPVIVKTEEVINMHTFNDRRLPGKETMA
Chain of GluN1/GluN2C (Q00961 20-1237, other chains not shown): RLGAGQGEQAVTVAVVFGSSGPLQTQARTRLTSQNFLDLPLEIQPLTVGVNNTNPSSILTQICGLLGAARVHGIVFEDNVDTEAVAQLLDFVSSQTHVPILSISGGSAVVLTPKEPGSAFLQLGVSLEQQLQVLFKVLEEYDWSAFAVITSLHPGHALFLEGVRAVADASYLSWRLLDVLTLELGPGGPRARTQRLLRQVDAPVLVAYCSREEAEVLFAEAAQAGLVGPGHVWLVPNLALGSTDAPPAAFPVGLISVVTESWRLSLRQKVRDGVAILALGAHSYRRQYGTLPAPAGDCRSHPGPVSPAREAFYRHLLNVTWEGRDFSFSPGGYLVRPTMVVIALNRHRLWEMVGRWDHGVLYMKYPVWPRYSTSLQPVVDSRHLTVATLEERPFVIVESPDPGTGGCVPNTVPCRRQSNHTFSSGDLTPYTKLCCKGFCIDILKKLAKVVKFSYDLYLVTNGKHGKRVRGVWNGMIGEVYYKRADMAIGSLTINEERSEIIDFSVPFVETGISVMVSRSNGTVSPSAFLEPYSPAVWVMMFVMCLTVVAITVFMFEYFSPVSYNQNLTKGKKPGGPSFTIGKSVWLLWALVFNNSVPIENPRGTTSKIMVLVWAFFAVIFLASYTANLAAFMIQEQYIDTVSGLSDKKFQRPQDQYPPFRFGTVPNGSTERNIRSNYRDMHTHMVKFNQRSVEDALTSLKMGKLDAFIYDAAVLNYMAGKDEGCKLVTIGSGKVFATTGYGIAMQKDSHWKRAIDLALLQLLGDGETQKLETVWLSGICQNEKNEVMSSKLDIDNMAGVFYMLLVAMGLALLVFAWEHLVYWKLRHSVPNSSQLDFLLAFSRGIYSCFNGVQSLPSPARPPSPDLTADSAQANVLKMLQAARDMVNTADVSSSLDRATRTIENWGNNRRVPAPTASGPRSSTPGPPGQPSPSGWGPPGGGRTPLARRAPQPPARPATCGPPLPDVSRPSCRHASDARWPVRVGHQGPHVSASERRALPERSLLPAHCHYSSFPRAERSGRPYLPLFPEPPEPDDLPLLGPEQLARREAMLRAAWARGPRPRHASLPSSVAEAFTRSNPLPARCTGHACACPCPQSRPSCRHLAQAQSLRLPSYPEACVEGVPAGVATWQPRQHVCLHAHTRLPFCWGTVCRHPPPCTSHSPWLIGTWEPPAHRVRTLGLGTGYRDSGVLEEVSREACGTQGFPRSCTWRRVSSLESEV
Chain of recombinant rat homomeric GluK1 (P22756 31-949): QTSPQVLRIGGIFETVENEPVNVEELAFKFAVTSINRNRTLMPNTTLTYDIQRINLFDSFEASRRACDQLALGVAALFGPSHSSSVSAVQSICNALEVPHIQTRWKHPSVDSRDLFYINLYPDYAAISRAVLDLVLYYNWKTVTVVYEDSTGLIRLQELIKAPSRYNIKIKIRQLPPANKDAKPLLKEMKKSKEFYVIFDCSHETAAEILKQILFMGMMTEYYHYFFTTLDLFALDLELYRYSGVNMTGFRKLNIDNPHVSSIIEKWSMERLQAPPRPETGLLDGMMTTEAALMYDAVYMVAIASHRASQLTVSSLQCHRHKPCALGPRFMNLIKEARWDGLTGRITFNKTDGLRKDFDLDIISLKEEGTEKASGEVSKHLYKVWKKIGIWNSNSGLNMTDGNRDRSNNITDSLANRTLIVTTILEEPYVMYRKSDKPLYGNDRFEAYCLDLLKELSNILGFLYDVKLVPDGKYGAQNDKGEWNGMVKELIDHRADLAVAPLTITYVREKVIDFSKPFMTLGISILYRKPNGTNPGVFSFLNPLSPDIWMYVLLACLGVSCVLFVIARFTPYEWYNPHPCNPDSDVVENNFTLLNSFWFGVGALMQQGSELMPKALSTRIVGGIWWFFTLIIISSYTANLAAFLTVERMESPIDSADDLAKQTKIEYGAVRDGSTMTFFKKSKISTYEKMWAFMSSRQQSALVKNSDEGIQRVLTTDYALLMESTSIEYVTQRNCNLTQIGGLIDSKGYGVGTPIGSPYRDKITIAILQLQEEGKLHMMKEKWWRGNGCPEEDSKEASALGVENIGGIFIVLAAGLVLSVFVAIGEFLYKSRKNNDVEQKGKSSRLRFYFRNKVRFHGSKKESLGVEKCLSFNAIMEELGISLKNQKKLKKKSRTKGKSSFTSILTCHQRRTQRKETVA

Cl.O=C(O)C[C@H]1CCN[C@@H]1C(=O)O [3a, (2S,3R)-3-(Carboxymethyl)pyrrolidine-2-carboxylic Acid Hydrochloride]
IC50 ([1]; read-out: IC50 EAAT1, HEK293 cells, [3H]-D-Asp uptake): > 300 µM | IC50 ([2]; read-out: IC50 EAAT2, HEK293 cells, [3H]-D-Asp uptake): > 300 µM | GluK1/K3 (GluK1/GluK3 Ki selectivity ratio) [3]: 6 | IC50 ([4]; read-out: IC50 EAAT3, HEK293 cells, [3H]-D-Asp uptake): > 300 µM | IC50 [5]: 106 µM | IC50 KA [6]: 1.6 µM | Ki [7]: 0.5 µM

Cl.O=C(O)C(Cc1nnn[nH]1)[C@@H]1CCN[C@H]1C(=O)O (relative stereo) [3q-s3,4, trans-3-(1-Carboxy-2-(1H-tetrazol-5-yl)ethyl)pyrrolidine-2-carboxylic Acid Hydrochloride]
Ki [8]: 2.7 ± 0.1 µM | Ki [9]: 62 ± 9 µM | Ki [10]: 0.61 ± 0.02 µM | fold preference as antagonist for GluN1/GluN2A over GluN1/GluN2B-D [11]: 4.4−100 fold | Ki [12]: 12 ± 1 µM | pKi NMDA (mean ± SEM, in brackets) [13]: 6.61 ± 0.07

Cl.Cl.NC(C(=O)O)[C@@H]1CCN[C@H]1C(=O)O (relative stereo) [3k, trans-3-(Amino(carboxy)methyl)pyrrolidine-2-carboxylic Acid Dihydrochloride]
Ki [14]: > 100 µM | IC50 [1]: > 300 µM | IC50 [2]: > 300 µM | Ki [3]: 33 ± 2.4 µM | GluK1/K3 (GluK1/GluK3 Ki selectivity ratio) [3]: >3 | pIC50 AMPA (mean ± SEM, in brackets) [15]: 4.51 ± 0.03 | Ki [16]: > 100 µM | IC50 [4]: > 300 µM | IC50 KA [17]: >100 µM | pKi NMDA (mean ± SEM, in brackets) [13]: 5.06 ± 0.02
